# Marks after values point to notes of the source that are not given here.
# Experiments:
# [1] = tested on: Rabbit Dry-eye Syndrome Model, which was Induced by Trigeminal Denervation; assay: Basal tear secretion in rabbit dry-eye syndrome model induced by trigeminal denervation (Test Example 2); format: in vivo, male Japanese albino rabbits (Std:JW/CSK); details: for basal tear secretion: 5 eyes
# Experimental: (§1) Fifteen male Japanese albino rabbits (Std:JW/CSK) were used.
# (§2) (2) Generating Rabbit Dry-eye Syndrome Model by Trigeminal Denervation.
# (§3) Urethane (ALDRICH) was administered i.p. at the dose of 1 g/kg to the rabbits of which occipital hair had been shaved.
# (§4) After disinfecting of the shaved area, midline incision of the skin was made from the frontal bone to the ear root, and the muscular tissue around the periosteum, temporal bone and manidibular articular process were detached. After the detachment, a hole of 2×1.5 cm in size was made in the bone from the parietal medial region to the temporal region by means of the bone drill (URAWA KOGYO Co., Ltd. MINITOR C-130) under the surgical microscope (KONAN CAMERA R&I Inc., PMO-50). Then, the dura was detached from the cranial bone while cotton bud was kept inserted between the temporal bone and the dura. After the detachment was made up to the cranial base, detachment was further made toward the medial border of the petrous part of temporal bone in the carnial cavity, to find the trigeminal nerve in the petrous part. Then, the dura of about 1 to 2 mm on the nasal side of the semilunar ganglion was incised. After the incision, the two branches of nerve fascicle, i.e. the first branch (ocular nerve) of the trigeminal nerve and the second branch (maxillary nerve) were pulled laterally and cut with corneoscleral scissors. Immediately after the operation, miosis of the ipsilateral eye was confirmed and then the cotton kept inserted was removed, and the skin at the head was closed with suture. After the operation, an antibiotic (MYCILLIN SQL® Meiji) was administered i.m. at the dose of 0.1 ml/kg.
# (§5) The trigeminal denervation was made only on the left eye side, while on the right eye side, no trigeminal denervation nor sham operation was made.
# (§6) (3) Method of Administration.
# (§7) 13,14-dihydro-15-keto-16,16-difluoro-PGE1 was used as an active ingredient of the present invention to prepare test eyedrops containing 0.0001% and 0.001% of the compound. As a control, the vehicle of the eyedrops without the active ingredient was used.
# (§8) Each of the compositions was instilled to the eyes everyday at the volume of 30 μl/eye two times a day (at 10:00 and 18:00) for two weeks. Five eyes per each of the test groups and the control group were treated and then examined for the whole tear secretion, the basal tear secretion and the keratoepithelial lesion as follows.
# Before the start of the instillation (week 0), and 1, 2, and 3 weeks after the start, the basal tear secretion was measured 2 hours after the 1st instillation on the day of the examination.
# Keratoconjunctiva was anesthetized by instillation of 4% lidocaine (Xylocalne® 4% for ophthalmic solution; Fujisawa Pharmaceutical Co., Ltd.), the eye drops and the tear around the eyelid were wiped off about 5 minutes after and loss of keratoconjunctival esthesia was confirmed with the Cochet-Bonnet type esthesiometer. Then, one edge of the Shirmer's test strip was inserted into the conjunctival sac and kept there for 5 minutes. The length of the moistened part was read from the scale on the strip.
# The basal tear secretion was expressed by mean value per minute calculated from the 4-minutes value obtained by subtracting the initial 1-minute value from the 5-minutes Sirmer's test, so that the spontaneous volume of the tear retained in the conjunctival sac might be excluded.
# [2] = tested on: rats (Crj:CD strain); assay: Exaltation of salivation, saliva evaluated visually (Test Example 3); format: in vivo, Male and female rats (Crj:CD strain); details: 1 mg/kg orally once a day, 16 animals per group
# Experimental: The effect of the composition of the present invention on salivary secretion was determined. (1) Test Animals Male and female rats (Crj:CD strain) were used. Each of the test and control groups contains 16 animals. (2) Method of Administration 13,14-dihydro-15-keto-16,16-difuloro-PGE1 was used as an active ingredient of the present invention to prepare test solution containing 0.2 mg/ml of the compound. 5 ml/kg of the solution (1 mg/kg of the compound) was forcedly administrated orally once a day. For the animals of control group, 5 ml/kg of the vehicle without the active ingredient was administrated once a day. The administration was continued for four weeks. (3) Examination The amount of the saliva of the test group and control group was evaluated visually everyday.
# [3] = tested on: Rabbit Dry-eye Syndrome Model, which was Induced by Trigeminal Denervation; assay: Whole tear secretion (Schirmer's test) in rabbit dry-eye syndrome model induced by trigeminal denervation (Test Example 2); format: in vivo, male Japanese albino rabbits (Std:JW/CSK); details: for whole tear secretion: 5 eyes
# Experimental: as §1, §2, §3, §4, §5, §6, §7, §8
# i) Whole Tear Secretion (Schirmer's Test)
# Before the start of the instillation (week 0), and 1, 2, and 3 weeks after the start, the whole tear secretion was measured two hours after the first instillation on the day of examination.
# Under no anesthetization, one edge of the Schirmer's test strip (Showa Yakuhin Kako Co., Ltd., Lot No. 70080) was inserted into the conjunctival sac of each test animal. One minute after, the strip was removed and the length of the moistened part was read from the scale provided on the strip to determine the amount of whole tear secretion.
# [4] = tested on: rats (SD strain); assay: Exaltation of salivation, salivary weight on paper filter (Test Example 4); format: in vivo, Male rats (SD strain); details: 1.0 mg/kg orally once a day for 10 days
# Experimental: The effect of the composition of the present invention on salivary secretion was determined. (1) Test Animals Male rats (SD strain) were used. Each of the test and control groups contains 8 animals. (2) Method of Administration 13,14-dihydro-15-keto-16,16-difuloro-PGE1 was used as an active ingredient of the present invention to prepare test solution containing 0.2 mg/ml of the compound. 5 ml/kg of the solution (1.0 mg/kg of the compound) was forcedly administrated orally once a day. For the animals f control group, 5 ml/kg of vehicle without the active ingredient was administrated once a day. The administration was continued for 10 days. (3) Examination The amount of the saliva of the test group and control group was measured one hour after the administration on 10th day. The edge of a paper filter (Schirmer's test strip, Showa Yakuhin Kako Co., Ltd.) was inserted between lower gingiva and mandibula. Three minutes after, the paper filter was removed and the weight of the saliva was calculated by the following formula. weight of saliva=(the weight of paper filter including saliva)−(weight of only paper filter) (4) Result
# [5] = 0.0001% eyedrops 30 μl/eye two times a day for two weeks, week 1
# [6] = 0.0001% eyedrops 30 μl/eye two times a day for two weeks, week 2
# [7] = 0.0001% eyedrops 30 μl/eye two times a day for two weeks, week 3
# [8] = 0.001% eyedrops 30 μl/eye two times a day for two weeks, week 1
# [9] = 0.001% eyedrops 30 μl/eye two times a day for two weeks, week 2
# [10] = 0.001% eyedrops 30 μl/eye two times a day for two weeks, week 3
# [11] = dry-eye syndrome model animals, 0.0001% and 0.001% eyedrops
# [12] = test group 0.0001% eyedrops, before administration (after operation, baseline)
# [13] = test group 0.001% eyedrops, before administration (after operation, baseline)
compound,measurement,setting,value
"CCCCC(F)(F)C(=O)CCC1C(O)CC(=O)C1CCCCCCC(=O)O (stereo not shown) [13,14-dihydro-15-keto-16,16-difluoro-PGE1]",basal tear secretion,[1]; [5],1.53 ± 0.26^[+] mm/min.
same,basal tear secretion,[1]; [6],1.60 ± 0.11**^++ mm/min.
same,basal tear secretion,[1]; [7],1.48 ± 0.17^#[++] mm/min.
same,basal tear secretion,[1]; [8],2.00 ± 0.12*^##++ mm/min.
same,basal tear secretion,[1]; [9],2.00 ± 0.18*^##++ mm/min.
same,basal tear secretion,[1]; [10],2.00 ± 0.14*^##++ mm/min.
same,decreased basal tear secretion (result in words),[1]; [11],improved
same,basal tear secretion,[1]; [12],0.43 ± 0.06^[**^] mm/min.
same,basal tear secretion,[1]; [13],0.43 ± 0.08 mm/min.
same,rats in which exaltation of saliva was observed,[2]; 10th day after the start of the administration,8 of 16
same,rats showing salivary exaltation,[2]; subsequent to the 22nd day after the start,16 rats
same,whole tear secretion,[3]; [5],7.10 ± 0.51**^++ mm/min.
same,whole tear secretion,[3]; [6],6.60 ± 0.37*^##++ mm/min.
same,whole tear secretion,[3]; [7],6.30 ± 0.68^++ mm/min.
same,whole tear secretion,[3]; [8],11.20 ± 0.51**^##++ mm/min.
same,whole tear secretion,[3]; [9],10.50 ± 0.57**^##++ mm/min.
same,whole tear secretion,[3]; [10],9.90 ± 0.81**^##++ mm/min.
same,decreased whole tear secretion (result in words),[3]; [11],improved
same,whole tear secretion,[3]; [12],3.00 ± 0.61 mm/min.
same,whole tear secretion,[3]; [13],3.20 ± 0.51 mm/min.
same,salivary secretion (result in words),[4]; compared with the control group,significantly increased
same,Salivary weight (mean ± S.E.),"[4]; one hour after the administration on 10th day, paper filter 3 minutes, 8 animals",18.1 ± 5.6 mg

# — patent US7396946B2, “Compound for treatment of external secretion disorders” (Sucampo AG, priority 1999, dated 2008)
